# Laboratory results reported in ChEMBL document CHEMBL1130630, “Structure-based design of peptidomimetic ligands of the Grb2-SH2 domain” (Bioorg Med Chem Lett, 1998).
# Square brackets hold non-standard residues; d marks the D form. Peptide text beside a SMILES is read from it. pY = N[C@@H](Cc1ccc(OP(=O)(O)O)cc1)C(=O)O
# Molecular target: Growth factor receptor-bound protein 2 (Homo sapiens, UniProt P62993)
# Experiment: Inhibition of Growth factor receptor bound protein 2 SH2 domain binding to phospho-EGFR by ELISA
row,IC50 [µM],Compound
1,48.7,CC(=O)N[C@@H](Cc1ccc(OP(=O)(O)O)cc1)C(=O)NCc1cccc(NC(N)=O)c1
2,5.44,CC(=O)N[C@@H](Cc1ccc(OP(=O)(O)O)cc1)C(=O)N[C@@H](CCC(N)=O)C(=O)N[C@@H](CC(N)=O)C(N)=O (Ac-[pY]-Gln-Asn-NH2)
3,6.19,CC(=O)N[C@@H](Cc1ccc(OP(=O)(O)O)cc1)C(=O)N[C@H](c1cccc(NC(N)=O)c1)C(C)C
4,6.5,CC(=O)N[C@@H](Cc1ccc(OP(=O)(O)O)cc1)C(=O)N[C@@H](CCC(N)=O)c1cccc(NC(N)=O)c1
5,67,CC(=O)N[C@@H](Cc1ccc(OP(=O)(O)O)cc1)C(=O)NCC(=O)N[C@@H](CC(N)=O)C(N)=O (Ac-[pY]-Gly-Asn-NH2)

row,Compound,IC50 [µM]
1,CC(=O)N[C@@H](Cc1ccc(OP(=O)(O)O)cc1)C(=O)N[C@H](C(=O)N[C@@H](CC(N)=O)C(N)=O)C(C)C (Ac-[pY]-Val-Asn-NH2),4.32
